# Measurements: PMC9866314 (Viruses, 2022)
# How the values were obtained:
# in vitro = conditions: hamster
# FMDV serotype A (NP05) = assay: microbe, parasite or virus in culture; assay type: cell-based; conditions: Foot-and-mouth disease virus; for EC50: BHK-21, read-out: Antiviral Activity EC50; for EC90: BHK-21, read-out: Antiviral Activity EC90
# [1] = tested on: RD114 glycoprotein (RD114pp) of endogenous feline retrovirus; conditions: read-out: IC50 against RD114pp; cited from earlier work
SMILES,CC50 (in vitro) [µM],EC50 (FMDV serotype A (NP05)) [µM],EC90 (FMDV serotype A (NP05)) [µM],IC50 [1] [µM]
"CC1=CC(C)(C)Nc2ccc(Cc3ccc4c(c3)C(C)=CC(C)(C)N4)cc21 [NSC217697, 6,6′-methylene bis(2,2,4-trimethyl-1,2-dihydroquinoline)]",> 100,0.78 ± 0.1,9.52 ± 0.18,
"CO[C@@H]1C[C@@H](C[C@H]2CC[C@H](C)[C@H]([C@@H](C)C(=O)O)O2)O[C@]2(O[C@](C)([C@H]3CC[C@@](C)([C@@H]4O[C@@H]([C@H]5O[C@@](O)(CO)[C@H](C)C[C@@H]5C)C[C@@H]4C)O3)C[C@H]2C)[C@@H]1C [NSC292567, Pandavir/Nigericin]",49.9 ± 1.7,0.42 ± 0.08,3.85 ± 0.34,
"O=C1CCCc2cc3c(cc21)CC1(C3)Cc2cc3c(cc2C1)C(=O)CCC3 [NSC670283, 2,2′-spirobi [3,6,7,8-tetrahydro-1H-cyclopenta[g]naphthalene]-5,5′-dione]",> 100,3.38 ± 1.02,30.45 ± 0.25,3
"NC(=O)c1ncn([C@@H]2O[C@H](CO)[C@@H](O)[C@H]2O)n1 [Ribavirin, 1-β-d-ribofuranosyl-1,2,4-triazole-3-carboxamide, reference compound]",> 100,42.89 ± 0.42,393.6 ± 2.56,
"CCOC(=O)/C=C/[C@H](C[C@@H]1CCNC1=O)NC(=O)[C@@H](CC(=O)[C@@H](NC(=O)c1cc(C)on1)C(C)C)Cc1ccc(F)cc1 [Rupintrivir, reference compound]",> 100,2.02 ± 0.3,12.1 ± 1.6,
